In patent US9724329B2, “Stimulating immune response” (Peter MacCallum Cancer Institute, priority 2010, dated 2017):
Entries after “also recorded” stand apart in the source; their conditions may differ. One block for each molecule: values may come before it.

Tests used:
transplanted Vk*MYC MM = assay: Transplanted Vk*MYC myeloma model in mice: survival, paraproteinaemia (M-spike), serum immunoglobulin; type: in vivo, mouse; details: for efficacy against Vk*MYC MM in vivo (progression): FIG. 8d, lenalidomide 100 mg/kg, NMP, saline control
Experimental: Sublethally (6Gy) irradiated C57BL/6 mice were injected with 1×10e5 Vk*myc splenocytes derived from myelomatous mice by intravenous injection. Recipient mice were monitored by serum protein electophoresis for development of monoclonal paraproteinaemia (M-spike). The monoclonal paraprotein is a sensitive and specific marker of myeloma burden, as this protein is only produced by myeloma cells. Paraprotein estimation is a standard clinical parameter by which myeloma is monitored in human patients. Once detected, M-spikes were quantitated by densitometry (expressed as % of total serum protein). […] Mice were monitored by weekly M-spike quantification and for clinically apparent disease. Mice developing distress due to disease progression (e.g. hind limb paralysis, splenic rupture) were euthanased.
All mouse experiments were carried out in accordance with ethical guidelines determined by the Peter Mac Animal Experimental Ethics Committee. For in vivo assessment of NMP efficacy, treatment studies were performed on mice bearing transplanted Vk*MYC myeloma^2. […] To exclude the potential for adoptive transfer of immune cells with grafts into Rag2^−/−cγ^−/− mice and matched C57BL/6 recipients (FIG. 8f), freshly sorted Vk*MYC MM cells (40,000 per mouse) were used for this experiment. The onset of transplanted disease was confirmed by serum protein electrophoresis; those mice manifesting M-protein >2% of total serum protein (FIG. 8a) or >5% (remaining figures) were selected for treatment.
All dosing was performed by oral gavage using freshly prepared drug solutions or suspensions. Mice were dosed with NMP according to standard practice for drug administration using NMP/PEG as a vehicle^1. NMP (Sigma Aldrich, NSW, AUS) was diluted 1 in 10 v/v (FIG. 8a) or 1 in 5 v/v (remaining figures) in PEG300 (Sigma Aldrich, NSW, AUS) and administered by oral gavage to a final volume of 1 uL NMP per gram mouse weight.
BEZ235 was kindly provided by Novartis. According to Novartis' recommendations, BEZ235 was dissolved in NMP by heating briefly to 60° C. and further diluting 1 in 10 v/v in PEG300. Alternatively BEZ235 was suspended in 0.5% methylcellulose (MC) solution and mixed thoroughly prior to administration.
Lenalidomide was kindly provided by Celgene. Lenalidomide was suspended in 0.9% saline solution immediately prior to oral gavage at a dose of 100 mg/kg.
Treatment was continued daily for the first month, then weekdays only for the remainder of the indicated treatment period. Mice were culled with the development of features of overt myeloma, including permanent hind-limb paralysis and disseminated extramedullary disease.
Freshly obtained mouse serum was analyzed for paraproteinemia on the Sebia Hydrasys® semi-automated agarose gel electrophoresis system (Sebia, Norcross, Ga., USA). Serum M-spike densitometry quantification was performed using Phoresis software (release 4.7.2, Sebia) by a biochemist blinded to the nature of group allocation. M-spike results are expressed as a percentage of total serum protein.
For correlative quantitative immunoglobulin estimates, thawed aliquots of serum were batched for sandwich enzyme-linked immunosorbent assay (ELISA) using Igλ or IgK capture antibodies (Southern Biotech, AL, USA) and biotin/streptavidin detection by horseradish peroxidase/tetramethylbenzidine dihydrochloride substrate standardized against IgMK/IgMl isotype controls (Biolegend, CA, USA). ELISA plates were read using a VersaMax™ microplate reader and analyzed by SoftMax Pro software v 5.4 (Molecular Devices, CA, USA).

[1] = test system: K562 cells (natural killer (NK) only sensitive cell line); assay: NK-cell cytotoxicity: drug-treated PBMC as effectors in chromium release assay; type: cell-based, human; details: for NK cell function / cytotoxicity (K562 lysis): 10 uM, PBMC cultured 3 days, versus untreated
Experimental: (§1) FIG. 10. […] (b) The anti-inflammatory potential of NMP was assessed using LPS-treated CD14+ monocytes that were isolated from healthy donor PBMC. Monocytes were treated with 10 uM NMP or lenalidomide (LEN) and 1 ug/mL LPS for 18 hr or left untreated (Unt), then supernatants were analyzed via cytokine bead array for TNFα and IL-6. (c) The polarizing effect of NMP on cytokine production from PBMC was assessed from supernatants collected after 3d drug treatment. Levels of IL-2, IL-4 and IL-10 were analyzed by cytokine bead array. (d) NK-cell cytotoxicity was assessed by culturing healthy donor PBMC in the presence of 10 uM NMP, 10 uM lenalidomide, or as media alone (Unt). Cells harvested after 3d were washed and used as effectors in chromium release assays against the NK-only sensitive cell line, K562 at an effector ratio of 50:1. […] Data are presented as mean+/−SEM. NS, not statistically significant. (p≧0.05), *p<0.05
Healthy donor peripheral blood mononuclear cells (PBMC) were cultured for 3 days in RPMI-1640 and 10% FCS in the presence of 10 uM NMP, 10 uM Len (positive control) or no drugs. After 3 days the cells were harvested and used as effectors in a standard 4 hr chromium release assay, using K562 as targets (natural killer (NK) only sensitive cell line) (n=3).
BEZ235 and lenalidomide were dissolved in dimethylsulfoxide (DMSO) as 10 mM stock solutions and further diluted in media to final concentrations as specified in figure legends. The final concentration of DMSO was not greater than 0.1% v/v in any assay.

[2] = test system: peripheral blood mononuclear cells (PBMC); assay: Cytokine production of PBMC (cytokine bead array); type: cell-based, human; details: for cytokine secretion profile (Th): FIG. 10c, 3d drug treatment
Experimental: PBMC were cultured for 3 days in RPMI-1640 and 10% FCS in the presence of 10 uM NMP, 10 uM Len or no drugs. After 3 days, supernatants were collected and a cytokine bead array performed via the Luminex instrument to analyze changes in IL-2, IL-4 and IL-10 production (n=3).
(§2) Supernatants from cultured cells or serum from VK*MYC mice were used to assess the level of individual cytokines (as specified in the methods and results section) via the Luminex cytokine bead array system. The assay was conducted according to the manufacturer instructions. Briefly, pre-mixed beads were added to 25 uL of undiluted supernatant/serum, followed by the addition of detection antibodies and streptavidin in 96 well filtered-membrane plates. The plates were run on the Luminex 200 instrument and data analysed with the xPONENT software.

PBMC [3] = assay: Direct cytotoxicity, Annexin V and 7aad flow cytometry, PBMC; type: cell-based, human; details: NMP 0 uM, 1 uM, 10 uM, 100 uM or 10 mM, 48 hours
Experimental: (§3) PBMC and a myeloma cell line (U266) were cultured in RPMI-1640 with 10% FCS in the presence of NMP (0 uM, 1 uM, 10 uM, 100 uM or 10 mM) for 48 hours. The cells were stained with viability markers (Annexin V and 7aad) and analyzed on the flow cytometer (n=2).

myeloma cell line (U266) = assay: Direct cytotoxicity, Annexin V and 7aad flow cytometry, U266; type: cell-based, human; details: NMP 0 uM, 1 uM, 10 uM, 100 uM or 10 mM, 48 hours
Experimental: as §3

PBMC [4] = assay: Immune cell subset composition of cultured PBMC; type: cell-based, human; details: 10 uM, 3 days
Experimental: PBMC were cultured in RPMI-1640 and 10% FCS for 3 days in the presence of either 10 uM NMP, 10 uM Len or no drugs. At day 3 the cells were harvested and stained for T cell markers (CD4 and CD8), NK markers (CD3−, CD56) and regulatory T cells (CD3, CD4, CD25, CD127low). For controls, day 0 PBMC were stained to assess changes in cellular subsets after 3 days (n=3).

CD14+ monocytes = assay: Inflammatory cytokine secretion by LPS-treated CD14+ monocytes; type: cell-based, human; details: 10 uM; for IL-6 secretion / TNFα secretion: FIG. 10b, 1 ug/mL LPS, 18 hr
Experimental: as §1
CD14+ monocytes were sorted via the Dynal bead kit from PBMC. The cells were then treated with LPS to induce cytokine production, and cultured overnight in the presence of 10 uM NMP, 10 uM Len or no drugs. As background controls, non LPS stimulated monocytes were used. The supernatants were harvested and IL-1beta, GM-CSF, IL-6 and TNF-alpha analyzed via the Luminex beady array assay (n=3).
as §2

U266 cells = assay: Expression of NKG2D and DNAM-1 ligands on myeloma cells (flow cytometry); type: cell-based, human; details: 10 uM, 48 hrs; FIG. 10f
[5] = test system: LPS induced inflammation and shock; assay: LPS challenge, serum cytokines in non-tumor bearing mice; type: in vivo, mouse; details: FIG. 8c; serum 4 hours after LPS; NMP 1 uL/g po, lenalidomide 2 x 100 mg/kg po
Experimental: as §2
For LPS challenges, non-tumor bearing C57BL/6 mice were administered LPS (E. Coli 0127:B8, gamma-irradiated; Sigma) 1 mg/30 g mouse weight by intraperitoneal injection. NMP (1 uL/g mouse weight in PEG, po) was administered 4 hours prior to LPS. Lenalidomide was administered in 2 doses of 100 mg/kg po 24 and 4 hours prior to LPS. Serum was obtained 4 hours after LPS challenge and analyzed for cytokine content by bead array.

Vk*MYC MM bearing mice = assay: Serum cytokines in MM bearing mice; type: in vivo, mouse; details: FIG. 8e; one week of treatment, versus SAL
Experimental: as §2
For cytokine assessment in MM bearing mice, mice were treated daily for 7d with NMP or SAL, and serum collected 4 hours after the last dose.

[6] = test system: PI3K/mTOR phosphorylation targets; assay: PI3K/mTOR phosphorylation targets in vivo; details: in vivo (not shown)
[7] = bacterial and mammalian tests; cited from earlier work
[8] = rats, long-term exposure via inhalation or diet; cited from earlier work
[9] = rats, in the diet; cited from earlier work
[10] = in vivo; cited from earlier work

SMILES: CN1CCCC1=O [NMP, N-methylpyrrolidone]
- median survival (transplanted Vk*MYC MM; Example 1, FIG. 1, C57BL/6, NMP/PEG 1:10 v/v, 10 uL per gram, daily oral, 60 days, control 46 days): 60 days
- residual polyclonal Ig Lambda (L) (transplanted Vk*MYC MM; FIG. 8b): better maintained; also recorded: less suppressed
- clonally secreted Ig Kappa (K) (transplanted Vk*MYC MM; FIG. 8b, NMP/PEG versus PEG alone or PBS): Suppression
- NMP response in Rag2−/−cγ−/− knockout mice (transplanted Vk*MYC MM; FIG. 8f, immunodeficient mice lacking T, B or NK cells): No response
- NMP response in wild type C57BL/6 mice (transplanted Vk*MYC MM; FIG. 8f, same Vk*MYC clone): only observed in wild type C57BL/6
- efficacy against Vk*MYC MM in vivo (progression) (transplanted Vk*MYC MM): regressed
- NK cell function / cytotoxicity (K562 lysis) [1]: enhancement; also recorded: enhanced
- IL4 production ([2]; 10 uM, 3 days): inhibit
- IL10 production ([2]; 10 uM, 3 days): inhibit
- cytokine secretion profile (Th) [2]: away from a Th-2 profile
- direct cytotoxicity (AnnV+7aad+) (PBMC [3]): did not increase to any significant extent; also recorded: not cytotoxic
- direct cytotoxicity (AnnV+7aad+) (myeloma cell line (U266)): did not increase to any significant extent; also recorded: not cytotoxic
- proportions of immune cell subtypes (CD4, CD8, NK, regulatory T cells) (PBMC [4]): no significant alteration; also recorded: without altering
- secretion of the four inflammatory cytokines (IL-1beta, GM-CSF, IL-6, TNF-alpha) (CD14+ monocytes; Example 6, FIG. 7, overnight, relative to LPS only control): not shown to demonstrate a statistically significant effect
- IL-6 secretion (CD14+ monocytes): Statistically significant inhibition; also recorded: suppressed
- TNFα secretion (CD14+ monocytes): Statistically significant inhibition; also recorded: suppressed
- expression of NKG2D and DNAM-1 ligands (MIC-B, ULBP-1, ULBP-2 and CD155) (U266 cells): upregulated
- IL-6 production following LPS challenge [5]: suppressed
- TNFα serum levels following LPS challenge [5]: suppressed
- serum IL-6 (Vk*MYC MM bearing mice): reductions
- serum TNFα (Vk*MYC MM bearing mice): reductions
- effect on PI3K/mTOR phosphorylation targets [6]: did not detect any consistent effect
- genotoxicity [7]: no genotoxicity
- carcinogenic effects [8]: no carcinogenic effects
- no-effect level (for a decrease in pup body weight) [9]: 160 mg/kg/day
- oral LD50 [10]: 3600 to 7700 mg/kg

SMILES: Cn1c(=O)n(-c2ccc(C(C)(C)C#N)cc2)c2c3cc(-c4cnc5ccccc5c4)ccc3ncc21 [BEZ235, reference compound]
- median survival (transplanted Vk*MYC MM; FIG. 8a, BEZ235 25 mg/kg/d concurrent with NMP/PEG, n=6): 42.5 days
- effect on disease progression (transplanted Vk*MYC MM; FIG. 8a, BEZ235 in MC vehicle): minimal effect
- median survival (transplanted Vk*MYC MM; FIG. 8a, BEZ235 in MC vehicle, n=8): 47.5 days
- effect of concurrent administration on the therapeutic effect of NMP (transplanted Vk*MYC MM; FIG. 8a, BEZ235 with NMP/PEG): antagonized
- effect of co-treatment on NMP-induced NK-cell lysis ([1]; BEZ235 250 nM with NMP, FIG. 10e): inhibited; also recorded: downregulated

- expression of NKG2D and DNAM-1 ligands (MIC-B, ULBP-1, ULBP-2 and CD155) (U266 cells): a property not shared
SMILES: Nc1cccc2c1CN(C1CCC(=O)NC1=O)C2=O (stereo not shown) [Lenalidomide, reference compound]
- efficacy against Vk*MYC MM in vivo (progression) (transplanted Vk*MYC MM): poor efficacy
- efficacy against Vk*MYC MM in vivo (progression) (transplanted Vk*MYC MM; listed as lenalidomide): minimal effects
- NK cell function / cytotoxicity (K562 lysis) [1]: enhanced
- IL-2 production ([2]; 10 uM, 3 days): without altering
- cytokine secretion profile (Th) [2]: away from a Th-2 profile
- proportions of immune cell subtypes (CD4, CD8, NK, regulatory T cells) (PBMC [4]): without altering
- IL-6 secretion (CD14+ monocytes): suppressed
- TNFα secretion (CD14+ monocytes): suppressed
- IL-6 production following LPS challenge [5]: only NMP suppressed
- TNFα serum levels following LPS challenge [5]: suppressed
- effect on PI3K/mTOR phosphorylation targets [6]: did not detect any consistent effect
